Data reported in paper PMC11931445, “A Novel Compound QO‐83 Alleviates Acute and Chronic Epileptic Seizures in Rodents by Modulating KV7 Channel Activity” (CNS Neuroscience & Therapeutics, 2025).

What was measured:
[1] = tested on: liver tissue; assay: Liver toxicity, 28 days gavage; format: in vivo, KM mice; conditions: for liver-body weight ratio compared to control: QO-83 20, Flupirtine 20, APAP 200 mg/kg/d
Procedure: Twenty-four KM mice, half male and half female, weighing between 18 and 22 g, were randomly divided into four groups, each consisting of six mice: a control group, an acetaminophen (APAP) group, a flupirtine (FM) group, and a QO-83 group. The treatment lasted for 28 days, and the drug solvent was a 0.8% sodium carboxymethyl cellulose solution. The control group received an equal amount of 0.8% sodium carboxymethyl cellulose solution. A single dose was administered to each group via gavage, and the dosage volume was calculated based on the body weight of the mice. The control group received 0.8% sodium carboxymethyl cellulose solution, the APAP group received acetaminophen at 200 mg/kg/d, the FM group received […] at 20 mg/kg/d, and the QO-83 group received QO-83 at 20 mg/kg/d. After 28 days of administration, the liver was isolated, fixed in 4% paraformaldehyde for at least 24 h, routinely embedded in paraffin, and sectioned into 3–5 μm continuous slices. Hematoxylin-eosin (HE) staining was performed to observe the pathological structure of the tissue. After staining with HE, the tissue was dehydrated using an alcohol gradient, cleared, and mounted for the observation of liver lesions under a light microscope.

[2] = tested on: L02 cells; assay: MTT cytotoxicity; format: cell-based, human; conditions: 100 μM; 24h and 48h
Procedure: Normal human liver L02 cells were cultured in RPMI-1640 complete medium and maintained in a humidified incubator at 37°C with 5% CO2. Cell status was observed daily, and the medium was changed every 1–2 days. During the experiment, cells in good condition and in the logarithmic growth phase were selected. After digestion and collection, the cells were evenly suspended, and the cell suspension concentration was adjusted to 5×10^4 cells/mL. A volume of 150 μL was inoculated per well in a 96-well plate, leaving the surrounding wells for the addition of sterilized PBS (100 μL per well) to prevent edge effects. The plate was then placed in an incubator for further incubation. After 12 h of culturing to allow cell adhesion, the culture medium was aspirated from the 96-well plate. Based on the control, QO-83 was added at concentrations of 0.1 μM, 0.3 μM, 1 μM, 3 μM, 10 μM, 30 μM, and 100 μM, along with Flupirtine (100 μM) in a concentration gradient of 150 μL per well, with six replicates for each group. The control group served as the normal control. The cultures were incubated for 24 and 48 h, respectively. After this period, the culture medium was removed, and 50 μL of 5 mg/mL MTT solution was added to each well, followed by continued incubation for 4 h. […] Finally, the absorbance was measured using a microplate reader (preheated for at least 15 min) at a wavelength of 490 nm.

[3] = target: T1, KV7.2 (Homo sapiens, UniProt O43526); assay: Manual patch clamp, KV7 currents; format: cell-based; conditions: 20 μM XE991
T1 construct: expressed in transfected cells
Procedure: Pipettes (1–6 MΩ) were filled with a solution of KCl (145 mM), MgCl2 (1 mM), HEPES (10 mM), and EDTA (5 mM). The pH was adjusted to 7.2 with NaOH. Electrophysiological measurements were obtained using an AXON Multiclamp 700 B patch‐clamp amplifier. The bath solution contained NaCl (144 mM), KCl (5 mM), MgCl2 (1 mM), CaCl2 (2 mM), and D‐glucose (10 mM), with the pH adjusted to 7.4 using NaOH. The protocol involved an increase in voltage from −120 mV to 40 mV in increments of 10 mV to evoke a series of KV7 currents (1000 ms per pulse) in the bath solution. For details on cell culture, please see Appendix S1 2.2.1.
Statistical differences between multiple groups (mean ± SEM) were compared using one‐ or two‐way ANOVA. Electrophysiological data were analyzed using SPSS version 21 and OriginPro (version 9.1.0). P Peak inward currents obtained from activation protocols were calculated using the following equation: G = I/(Vm‐EK), where G is conductance, I is peak inward current, Vm is instantaneous membrane potential, and EK is equilibrium potential for the […] channel. Conductance data were normalized using maximum conductance and further fitted to the Boltzmann equation: G=Gmax+Gmin−Gmax/1+expVm−V1/2/k , where G is conductance, V1/2 is midpoint of activation, and k is slope factor. The “Spectrum” module of LabChart was used for data analysis of EEG signals, including the calculation of power density and averaging power spectral density (PSD).
Stable Chinese Hamster Ovary (CHO) cell lines expressing specific Kv7 channel subtypes, including KV7.2 and KV7.2/7.3, were cultured in Minimum Essential Medium (MEM) supplemented with 10% fetal calf serum, 1× nonessential amino acids, […], and […] hygromycin B. Concurrently, KV7.4 and KV7.5 channels were stably expressed in Human Embryonic Kidney 293A (HEK293A) cell lines and nurtured in Dulbecco's Modified Eagle Medium (DMEM) high glucose medium supplemented with 10% fetal bovine serum (FBS), […], and […] hygromycin B.

[4] = tested on: pilocarpine-induced seizures; assay: Pilocarpine-induced status epilepticus model with EEG; format: in vivo, Sprague–Dawley (SD) rats
From the text: For animal experiments, we used adult male Sprague–Dawley (SD) rats weighing between 240 and 260 g. Isoflurane anesthesia was used for all operations. Rats were secured in a stereotaxic frame, and the anterior fontanelle was marked 3 mm posteriorly. Additionally, marks were made approximately 3 mm lateral to the midline on both sides to indicate the insertion points for the positive and negative electrodes. A ground electrode was placed subcutaneously in the occipital lobe to eliminate recording noise. Postoperatively, each animal was housed separately in a single cage and provided food and water ad libitum. After a 3‐day adaptation period, electroencephalograms (EEG) were recorded.
The experimental procedure commenced with an intraperitoneal injection of lithium chloride (127 mg/kg). After 24 h, subcutaneous scopolamine methyl nitrate (1 mg/kg) was administered. […] Twenty minutes later, status epilepticus (SE) was induced by administering pilocarpine (100 mg/kg, i.p.). SE was terminated 2 h later by administering 10% chloral hydrate.
The Pilo group, 2 mg/kg XE991 group, and 2 mg/kg XE991 + 1 mg/kg QO‐83 group received an intraperitoneal injection of lithium chloride (127 mg/kg) 24 h prior to testing. Following this, scopolamine methyl nitrate (1 mg/kg) was administered […], and after 10 min, each group was treated with 25% beta‐cyclodextrin, 2 mg/kg XE991, or 2 mg/kg XE991, respectively. After 15 min, 25% beta‐cyclodextrin, 25% beta‐cyclodextrin, or 1 mg/kg QO‐83 was administered. Finally, 25 min later, pilocarpine (100 mg/kg, i.p.) was administered to induce seizures.
Seizure severity was assessed using a standardized scale ranging from 1 to 5, adapted from previous research criteria. Stage 1 encompasses mouth and facial movements, including wet dog shakes. Stage 2 involves head nodding. Stage 3 is characterized by unilateral forelimb clonus. […] Finally, stage 5 manifests as clonus of all limbs accompanied by falling.

| Compound | liver tissue pathology (HE staining) ([1]; QO-83 20 mg/kg/d, APAP 200 mg/kg/d) | liver-body weight ratio compared to control [1] | effect on cell viability (MTT) [2] | effect on QO-83-induced increase in KV7.2 channel current [3] | effect on EEG power density (0–50 Hz and δ, θ, α, β bands) ([4]; 2 mg/kg XE991, compared to PILO group) | seizure grade versus model group ([4]; 2 mg/kg XE991 alone) | seizure latency ([4]; 2 mg/kg XE991 alone, Pilo model 22.73 ± 6.03 min) [min] |
| --- | --- | --- | --- | --- | --- | --- | --- |
| CC(=O)Nc1ccc(O)cc1 [APAP, Acetaminophen] | significant pathological changes | increased significantly | – | – | – | – | – |
| CCOC(=O)Nc1ccc(NCc2ccc(F)cc2)nc1N [Flupirtine] | – | increased significantly | significantly inhibited cell viability | – | – | – | – |
| O=C1c2ccccc2C(Cc2ccncc2)(Cc2ccncc2)c2ccccc21 [XE991] | – | – | – | significantly inhibited the increase in KV7.2 channel current | significantly increased the power density | No significant differences | 8.52 ± 4.73 |
